Reference: ChEMBL document CHEMBL1150318, “Discovery of a novel, orally active himbacine-based thrombin receptor antagonist (SCH 530348) with potent antiplatelet activity” (J Med Chem, 2008)
Blank lines part the entries; values can stand above or below the compound they belong to. Active and inactive are the calls of the source. The calls are words filed in the database; no cut-off is given here.

Assays:
[1] = tested on: Platelet; assay: Ex vivo inhibition of haTRAP-induced platelet aggregation in cynomolgus monkey at 0.5 mg/kg, po after 24 hrs by impedance aggregometry; assay type: functional; conditions: Macaca fascicularis
[2] = Tmax in monkey 1 mg/kg, po; assay type: ADME, organism-based, Macaca mulatta; parameters: dose 1 mg/kg, route oral; conditions: rhesus monkey, in vivo
[3] = target: T1, Proteinase-activated receptor 4 (Homo sapiens) (UniProt Q96RI0); assay: Activity at PAR4
T1 sequence (whole entry): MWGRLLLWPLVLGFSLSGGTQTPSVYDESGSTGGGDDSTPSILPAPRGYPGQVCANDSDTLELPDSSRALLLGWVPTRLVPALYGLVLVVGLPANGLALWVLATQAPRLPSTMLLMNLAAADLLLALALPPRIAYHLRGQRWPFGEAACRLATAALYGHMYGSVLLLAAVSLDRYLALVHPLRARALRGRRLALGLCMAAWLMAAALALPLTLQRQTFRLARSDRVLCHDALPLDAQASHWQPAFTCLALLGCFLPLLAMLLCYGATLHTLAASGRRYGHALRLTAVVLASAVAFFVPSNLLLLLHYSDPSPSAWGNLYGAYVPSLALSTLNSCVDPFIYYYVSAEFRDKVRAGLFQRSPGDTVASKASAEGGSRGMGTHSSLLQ

[4] = tested on: Plasma; assay: Anticoagulant activity in human plasma assessed as activated partial thromboplastin time; assay type: functional, cell-free
[5] = tested on: Platelet; assay: Ex vivo inhibition of haTRAP-induced platelet aggregation in cynomolgus monkey at 0.3 mg/kg, po after 24 hrs by impedance aggregometry; assay type: functional; conditions: Macaca fascicularis
[6] = target: Cytochrome P450 3A4 (Homo sapiens, UniProt P08684); assay: Inhibition of CYP3A4 in human liver microsomes at 90 uM; assay type: ADME, Microsome
[7] = Oral bioavailability in monkey 1 mg/kg; assay type: ADME, organism-based, Macaca mulatta; conditions: rhesus monkey, in vivo
[8] = target: T2, Proteinase-activated receptor 1 (Homo sapiens, UniProt P25116); assay: Antagonist activity at human PAR1 in HCASMC assessed as inhibition of thrombin-induced calcium efflux; assay type: functional
T2 sequence (P25116 whole entry): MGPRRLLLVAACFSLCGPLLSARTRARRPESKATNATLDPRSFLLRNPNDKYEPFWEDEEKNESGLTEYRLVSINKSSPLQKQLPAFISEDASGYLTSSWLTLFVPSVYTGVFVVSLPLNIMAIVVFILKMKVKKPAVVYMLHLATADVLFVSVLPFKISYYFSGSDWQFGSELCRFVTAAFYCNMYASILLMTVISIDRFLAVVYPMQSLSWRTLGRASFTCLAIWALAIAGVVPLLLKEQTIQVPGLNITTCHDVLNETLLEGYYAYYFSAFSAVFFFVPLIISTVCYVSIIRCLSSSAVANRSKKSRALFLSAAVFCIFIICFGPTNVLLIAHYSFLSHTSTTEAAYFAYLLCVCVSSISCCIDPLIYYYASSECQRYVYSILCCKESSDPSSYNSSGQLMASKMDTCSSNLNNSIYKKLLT

[9] = Half life in rat 10 mg/kg, iv; assay type: ADME, organism-based; parameters: dose 10 mg/kg, route intravenous; conditions: in vivo
[10] = Cmax in monkey 1 mg/kg, po; assay type: ADME, organism-based, Macaca mulatta; parameters: dose 1 mg/kg, route oral; conditions: rhesus monkey, in vivo
[11] = Cmax in cynomolgus monkey at 0.1 mg/kg, po after >24 hrs; assay type: ADME, organism-based, Macaca fascicularis; parameters: dose 0.1 mg/kg, route oral; conditions: in vivo
[12] = target: T3, Cytochrome P450 1A2 (Homo sapiens, UniProt P05177); assay: Inhibition of CYP1A2 in human liver microsomes at 90 uM; assay type: ADME, Microsome
T3 sequence (P05177 whole entry): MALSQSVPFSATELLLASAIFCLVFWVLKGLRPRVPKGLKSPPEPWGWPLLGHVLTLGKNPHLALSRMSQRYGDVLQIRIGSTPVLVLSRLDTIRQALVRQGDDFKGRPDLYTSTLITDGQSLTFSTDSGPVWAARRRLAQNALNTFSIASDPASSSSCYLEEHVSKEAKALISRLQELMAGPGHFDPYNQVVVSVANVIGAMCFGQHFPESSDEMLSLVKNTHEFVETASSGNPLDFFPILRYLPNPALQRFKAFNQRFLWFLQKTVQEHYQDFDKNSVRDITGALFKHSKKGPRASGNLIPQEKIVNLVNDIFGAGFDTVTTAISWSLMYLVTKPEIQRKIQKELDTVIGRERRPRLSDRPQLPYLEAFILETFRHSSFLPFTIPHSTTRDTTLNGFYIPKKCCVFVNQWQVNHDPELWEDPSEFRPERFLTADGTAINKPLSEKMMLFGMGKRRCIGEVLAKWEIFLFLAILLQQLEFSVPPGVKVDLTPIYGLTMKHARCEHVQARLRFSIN

[13] = tested on: Platelet; assay: Ex vivo inhibition of haTRAP-induced platelet aggregation in cynomolgus monkey at 0.1 mg/kg after >24 hrs by impedance aggregometry; assay type: functional; conditions: Macaca fascicularis
[14] = Oral absorption in monkey 1 mg/kg, po; conditions: rhesus monkey, in vivo, read-out: Fabs
[15] = Cmax in rat 10 mg/kg, po; assay type: ADME, organism-based; parameters: dose 10 mg/kg, route oral; conditions: in vivo
[16] = AUC (0 to 24 hrs) in monkey 1 mg/kg, po; assay type: ADME, organism-based, Macaca mulatta; parameters: time < 24 hr, dose 1 mg/kg, route oral; conditions: rhesus monkey, plasma
[17] = Oral bioavailability in rat 10 mg/kg; assay type: ADME, organism-based; conditions: in vivo
[18] = Inhibition of […] in human liver microsomes at 90 uM; assay type: ADME, Microsome
[19] = target: Proteinase-activated receptor 2 (Homo sapiens) (UniProt P55085); assay: Binding affinity to PAR2
[20] = target: Cytochrome P450 2C9 (Homo sapiens, UniProt P11712); assay: Inhibition of CYP2C9 in human liver microsomes at 90 uM; assay type: ADME, Microsome
[21] = target: T4, Proteinase-activated receptor 3 (Homo sapiens) (UniProt O00254); assay: Binding affinity to PAR3
T4 sequence (whole entry): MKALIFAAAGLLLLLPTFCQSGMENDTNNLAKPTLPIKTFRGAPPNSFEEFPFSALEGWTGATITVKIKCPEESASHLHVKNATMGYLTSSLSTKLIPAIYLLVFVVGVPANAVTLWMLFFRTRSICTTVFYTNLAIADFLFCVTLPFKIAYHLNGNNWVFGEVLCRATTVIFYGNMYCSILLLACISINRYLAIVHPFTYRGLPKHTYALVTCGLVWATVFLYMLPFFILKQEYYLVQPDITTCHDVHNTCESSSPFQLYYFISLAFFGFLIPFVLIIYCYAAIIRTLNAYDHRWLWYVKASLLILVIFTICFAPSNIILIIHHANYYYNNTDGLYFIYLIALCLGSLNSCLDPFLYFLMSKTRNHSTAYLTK

[22] = tested on: Plasma; assay: Anticoagulant activity in human plasma assessed as prothrombin time; assay type: functional, cell-free
[23] = AUC (0 to 24 hrs) in cynomolgus monkey at 0.1 mg/kg, po after >24 hrs; assay type: ADME, organism-based, Macaca fascicularis; parameters: time < 24 hr, dose 0.1 mg/kg, route oral; conditions: plasma
[24] = AUC (0 to 24 hrs) in rat 10 mg/kg, po; assay type: ADME, organism-based; parameters: time < 24 hr, dose 10 mg/kg, route oral; conditions: plasma
[25] = Half life in monkey 1 mg/kg, iv; assay type: ADME, organism-based, Macaca mulatta; parameters: dose 1 mg/kg, route intravenous; conditions: rhesus monkey, in vivo
[26] = Oral absorption in rat 10 mg/kg, po; assay type: ADME, organism-based; parameters: dose 10 mg/kg, route oral; conditions: in vivo, read-out: Fabs
[27] = Tmax in rat 10 mg/kg, po; assay type: ADME, organism-based; parameters: dose 10 mg/kg, route oral; conditions: in vivo
[28] = target: Cytochrome P450 2C19 (Homo sapiens, UniProt P33261); assay: Inhibition of CYP2C19 in human liver microsomes at 90 uM; assay type: ADME, Microsome
[29] = target: T2, Proteinase-activated receptor 1; assay: Displacement of [3H]haTRAP from PAR1 in human platelets
[30] = Cmax in cynomolgus monkey at 1 mg/kg, po after >24 hrs; assay type: ADME, organism-based, Macaca fascicularis; parameters: dose 1 mg/kg, route oral; conditions: in vivo
[31] = AUC (0 to 24 hrs) in cynomolgus monkey at 1 mg/kg, po after >24 hrs; assay type: ADME, organism-based, Macaca fascicularis; parameters: time < 24 hr, dose 1 mg/kg, route oral; conditions: plasma
[32] = tested on: Platelet; assay: Ex vivo inhibition of haTRAP-induced platelet aggregation in cynomolgus monkey at 1 mg/kg after >24 hrs by impedance aggregometry; assay type: functional; conditions: Macaca fascicularis

Cytochrome P450 2C19, sequence (P33261 whole entry): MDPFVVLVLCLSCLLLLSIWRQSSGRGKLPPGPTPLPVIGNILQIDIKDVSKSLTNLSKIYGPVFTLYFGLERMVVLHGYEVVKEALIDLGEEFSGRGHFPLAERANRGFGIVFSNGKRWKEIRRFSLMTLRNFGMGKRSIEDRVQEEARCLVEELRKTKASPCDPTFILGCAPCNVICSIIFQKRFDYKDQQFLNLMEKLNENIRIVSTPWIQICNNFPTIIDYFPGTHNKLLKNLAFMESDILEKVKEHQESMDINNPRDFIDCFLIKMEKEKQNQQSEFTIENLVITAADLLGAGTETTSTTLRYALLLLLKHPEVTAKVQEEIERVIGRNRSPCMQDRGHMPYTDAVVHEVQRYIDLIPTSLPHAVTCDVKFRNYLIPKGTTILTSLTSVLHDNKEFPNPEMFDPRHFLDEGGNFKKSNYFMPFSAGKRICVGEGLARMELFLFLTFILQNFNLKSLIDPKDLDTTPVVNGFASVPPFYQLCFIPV
Proteinase-activated receptor 2 (Homo sapiens), sequence (P55085 whole entry): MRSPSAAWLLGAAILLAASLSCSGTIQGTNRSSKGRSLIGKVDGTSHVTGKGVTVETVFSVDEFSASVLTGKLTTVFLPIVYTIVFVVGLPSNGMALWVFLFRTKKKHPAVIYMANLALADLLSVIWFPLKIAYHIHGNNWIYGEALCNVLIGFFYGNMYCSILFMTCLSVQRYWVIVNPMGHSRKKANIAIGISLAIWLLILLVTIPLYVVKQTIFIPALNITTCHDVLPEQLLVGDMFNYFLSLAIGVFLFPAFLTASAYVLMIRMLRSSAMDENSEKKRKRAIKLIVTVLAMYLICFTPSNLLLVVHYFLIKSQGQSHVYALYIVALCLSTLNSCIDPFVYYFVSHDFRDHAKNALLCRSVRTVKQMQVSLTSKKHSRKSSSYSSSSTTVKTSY
Cytochrome P450 3A4, sequence (P08684 whole entry): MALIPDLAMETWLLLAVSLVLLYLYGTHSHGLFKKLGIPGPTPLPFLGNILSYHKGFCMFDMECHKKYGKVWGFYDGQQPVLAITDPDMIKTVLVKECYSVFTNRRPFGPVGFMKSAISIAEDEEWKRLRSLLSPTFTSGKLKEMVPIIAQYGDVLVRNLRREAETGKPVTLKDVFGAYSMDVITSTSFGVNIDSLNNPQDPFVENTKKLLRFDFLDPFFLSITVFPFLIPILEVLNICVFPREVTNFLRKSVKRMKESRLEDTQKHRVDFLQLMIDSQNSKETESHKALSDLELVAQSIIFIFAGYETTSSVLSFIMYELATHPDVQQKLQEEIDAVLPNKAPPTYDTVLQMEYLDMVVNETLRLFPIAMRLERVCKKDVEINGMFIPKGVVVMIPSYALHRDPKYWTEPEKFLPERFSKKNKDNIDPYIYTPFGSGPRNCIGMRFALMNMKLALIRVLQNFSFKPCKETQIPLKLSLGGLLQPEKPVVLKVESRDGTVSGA
Cytochrome P450 2C9, sequence (P11712 whole entry): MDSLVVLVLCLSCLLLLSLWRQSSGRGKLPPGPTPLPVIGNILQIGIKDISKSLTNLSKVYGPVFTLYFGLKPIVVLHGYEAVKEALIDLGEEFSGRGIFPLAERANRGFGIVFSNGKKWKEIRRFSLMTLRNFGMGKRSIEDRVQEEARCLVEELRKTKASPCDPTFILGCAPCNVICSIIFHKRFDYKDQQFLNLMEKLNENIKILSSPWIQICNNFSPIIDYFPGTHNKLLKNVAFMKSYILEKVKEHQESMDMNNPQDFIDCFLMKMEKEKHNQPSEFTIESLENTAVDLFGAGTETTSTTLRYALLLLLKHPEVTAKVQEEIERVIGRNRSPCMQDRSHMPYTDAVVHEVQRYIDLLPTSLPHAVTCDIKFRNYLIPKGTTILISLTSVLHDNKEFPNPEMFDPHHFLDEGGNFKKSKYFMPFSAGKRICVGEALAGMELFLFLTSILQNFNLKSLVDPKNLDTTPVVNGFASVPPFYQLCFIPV

Tmax [2]: 1 h
Activity [3]: inactive
Activity [6]: Not Active
bioavailability [7]: 86%
Ki [8]: 1.1 nM
half-life [9]: 5.1 h
Cmax [10]: 1300 nM
Cmax [11]: 18 nM
Activity [12]: Not Active
Fa [14]: 82%
Cmax [15]: 670 nM
AUC(0-t) at 24 h [16]: 10 µM·h
bioavailability [17]: 33%
Activity [18]: Not Active
Activity [19]: inactive
Activity [20]: Not Active
Activity [21]: inactive
AUC(0-t) at 24 h [23]: 0.2 µM·h
AUC(0-t) at 24 h [24]: 5.3 µM·h
half-life [25]: 13 h
Fa [26]: 68%
Tmax [27]: 3 h
Activity [28]: Not Active
Ki [29]: 8.1 nM
SMILES: CCOC(=O)N[C@@H]1CC[C@@H]2[C@@H](C1)C[C@H]1C(=O)O[C@H](C)[C@H]1[C@H]2/C=C/c1ccc(-c2cccc(F)c2)cn1 [VORAPAXAR]
inhibition in vivo at 0.5 mg/kg [1]: 100%
Activity [4]: inactive
inhibition in vivo at 0.3 mg/kg [5]: 100%
inhibition in vivo at 0.1 mg/kg [13]: 100%
Activity [22]: inactive

Cmax [30]: 330 nM
AUC(0-t) at 24 h [31]: 5.03 µM·h
Ki [29]: 13 nM
SMILES: CCOC(=O)N[C@@H]1CC[C@@H]2[C@@H](C1)C[C@H]1C(=O)O[C@H](C)[C@H]1[C@H]2/C=C/c1ccc(-c2cccc(C(F)(F)F)c2)cn1
inhibition in vivo at 1 mg/kg [32]: 100%
